Consider one compound from patent publication US11364242B2, “Treatment agents for inhibiting HIV and cancer in HIV infected patients” (UNIVERSITY OF MARYLAND, BALTIMORE, priority 2015, dated 2022).

One assay deals with HIV-1 2044. As to the kind of experiment: PBL infectivity assay, primary isolate. It counts as cell-based. The note with it: Human immunodeficiency virus 1, PBMC; X4 primary isolate, PBMCs, three donors; read-out: Geometric mean INK128 EC50, nM (95% CI). From the text: (§1) PBLs were isolated from buffy coats of HIV seronegative donors (New York Blood Center). The laboratory-adapted strains HIV BaL and HIV HXB2; primary isolates HIV 92BR020, 92UG031, 93BR029, and 93UG082; and multidrug resistant molecular clone NL4329129-2 were obtained from the NIH AIDS Repository. Primary isolate 2044 was from Paul Clapham (Windeyer Institute), and 1633 and 1638 from the Institute of Human Virology (University of Maryland School of Medicine). Maraviroc, efavirenz, raltegravir, and indinavir were from the NIH AIDS Repository. INK128 was purchased from ApexBio. Proliferation of PBLs was measured by the MTT kit (Roche), following the manufacturer's directions. PBL infectivity assays were performed as described herein.
(§2) PBLs were separated from buffy coats by density centrifugation over Ficoll-Hypaque (Sigma™), and activated by culture in the presence of 1 μg/mL anti-human CD3 antibody (clone x35, Fisher Scientific™) and 2 μg/mL anti-human CD28 antibody (Clone CD28.6, eBioscience™) for 3 days. Activated cells were infected by incubation with virus at a multiplicity of infection (MOI) of 0.001 for 2 hours. Infected cells were washed three times with PBS and cultured in 5% CO2 at 37° C., in RPMI/10% FBS supplemented with 100 units/mL IL-2 (Roche™) and antiviral drugs, in 96-well flat-bottom plates at a density of […] PBLs per 200 μL. Following 3 d of culture, half of the medium was replaced with fresh medium containing IL-2 and antiviral drugs. On day 7, viral replication was measured by p24 ELISA (Coulter) in culture supernatants and cell viability was measured by MTT assays.
(§3) EC50 values were determined by variable slope nonlinear regression analysis. Unpaired two-tailed t tests were used to check for statistical significant differences between INK128 EC50 values of R5 HIV versus X4 HIV in infectivity assays. Nonparametric Mann-Whitney tests were used to compare each treatment group and control group in animal studies. Statistical analyses were performed using GraphPad Prism™ (version 4.0). P<0.05 was considered significant.
(§4) The antiviral activity of INK128 was investigated in PBLs infected with CCR5 (R5)-tropic and CXCR4 (X4)-tropic HIV reference strains BaL and HXB2, respectively.

Another assay relates to HIV-1 92BR020. The assay is described as follows: PBL infectivity assay, primary isolate. The assay is classed as cell-based. The note with it: Human immunodeficiency virus 1, PBMC; R5 primary isolate, PBMCs, three donors; read-out: Geometric mean INK128 EC50, nM (95% CI).
Text: as §1, §2, §3, §4

A further assay has as its system HIV-1 93BR029. As to the kind of experiment: PBL infectivity assay, primary isolate. The assay is classed as cell-based. The note with it: Human immunodeficiency virus 1, PBMC; R5 primary isolate, PBMCs, three donors; read-out: Geometric mean INK128 EC50, nM (95% CI).
Text: as §1, §2, §3, §4

The subject of assay [1] is multidrug-resistant HIV molecular clone NL4329129-2. The assay is described as follows: PBL infectivity assay, multidrug resistant clone. The assay is classed as cell-based. The note with it: Human immunodeficiency virus 1, 168 h. Here is the method: FIG. 2A-2B are bar graphs that illustrate how INK128 inhibits replication of multidrug resistant HIV molecular clone NL4329129-2. Activated PBLs were infected for 2 hours using a MOI of 0.001. Infected cells were cultured in IL-2 medium and the indicated concentrations of INK128. On day 7, virus production was measured by p24 ELISA in the culture supernatants (FIG. 2A), and cell viability was measured by MTT (FIG. 2B) according to an embodiment.
PBLs were isolated from buffy coats of HIV seronegative donors (New York Blood Center). The laboratory-adapted strains HIV BaL and HIV HXB2; primary isolates HIV 92BR020, 92UG031, 93BR029, and 93UG082; and multidrug resistant molecular clone NL4329129-2 were obtained from the NIH AIDS Repository. […] Proliferation of PBLs was measured by the MTT kit (Roche), following the manufacturer's directions. […]
PBLs were separated from buffy coats by density centrifugation over Ficoll-Hypaque (Sigma™), and activated by culture in the presence of 1 μg/mL anti-human CD3 antibody (clone x35, Fisher Scientific™) and 2 μg/mL anti-human CD28 antibody (Clone CD28.6, eBioscience™) for 3 days. […] On day 7, viral replication was measured by p24 ELISA (Coulter) in culture supernatants and cell viability was measured by MTT assays.
EC50 values were determined by variable slope nonlinear regression analysis. […]

The test system of the next assay is CCR5. As to the kind of experiment: Flow cytometry quantitation of surface receptor on PBLs. The following applies: IL-2, 7 days, three donors. On the technique in general: A flow cytometer gives signals particle by particle.
For the next assay, the system named is CD4. Described as above. The note with it: IL-2, 7 days, three donors.

pEC50: −log10 of the molar value.

As usually defined, the EC50 is the midpoint of the concentration-response curve. Usually pEC50 stands for the negative decadic logarithm of the EC50, by convention in mol/L. `CC(C)n1nc(-c2ccc3oc(N)nc3c2)c2c(N)ncnc21` [INK128, 5-(4-amino-1-propan-2-ylpyrazolo[3,4-d]pyrimidin-3-yl)-1,3-benzoxazol-2-amine]: the half-maximal effective concentration (EC50) in the assay with HIV-1 2044 was 36.7 nM; in the assay on HIV-1 92BR020, 1.03 nM; in the assay on HIV-1 93BR029, 4.73 nM. In assay [1], this compound showed a negative logarithm of the EC50 (pEC50) of 7.96. In the assay on CCR5 (CD4+ and CD8+ T cell subsets), the “percentages of CCR5 expressing cells” value was “reduced”. The “CCR5 receptor density (molecules/cell)” value with CCR5 is on record as “decreased”. In addition, in the assay with CD4, the CD4 receptor levels result was “did not impact”.
